{
  "source": "patent US20170334899A1",
  "about": "“AMINO-SUBSTITUTED ISOTHIAZOLES” (Bayer Pharma Aktiengesellschaft, priority 2014, published 2017)",
  "note": "“And” between values parts separate entries of the source, which are not always exact repeats. Equal values may be shown once.",
  "data": [
    {"target": "T1, human kinase Mps-1 (Homo sapiens, UniProt P33981)", "T1 construct": "N-terminally GST-tagged human full length recombinant Mps-1 kinase; GST (N); purchased Invitrogen, Karslruhe, Germany PV4071", "T1 sequence (P33981 1-857)": "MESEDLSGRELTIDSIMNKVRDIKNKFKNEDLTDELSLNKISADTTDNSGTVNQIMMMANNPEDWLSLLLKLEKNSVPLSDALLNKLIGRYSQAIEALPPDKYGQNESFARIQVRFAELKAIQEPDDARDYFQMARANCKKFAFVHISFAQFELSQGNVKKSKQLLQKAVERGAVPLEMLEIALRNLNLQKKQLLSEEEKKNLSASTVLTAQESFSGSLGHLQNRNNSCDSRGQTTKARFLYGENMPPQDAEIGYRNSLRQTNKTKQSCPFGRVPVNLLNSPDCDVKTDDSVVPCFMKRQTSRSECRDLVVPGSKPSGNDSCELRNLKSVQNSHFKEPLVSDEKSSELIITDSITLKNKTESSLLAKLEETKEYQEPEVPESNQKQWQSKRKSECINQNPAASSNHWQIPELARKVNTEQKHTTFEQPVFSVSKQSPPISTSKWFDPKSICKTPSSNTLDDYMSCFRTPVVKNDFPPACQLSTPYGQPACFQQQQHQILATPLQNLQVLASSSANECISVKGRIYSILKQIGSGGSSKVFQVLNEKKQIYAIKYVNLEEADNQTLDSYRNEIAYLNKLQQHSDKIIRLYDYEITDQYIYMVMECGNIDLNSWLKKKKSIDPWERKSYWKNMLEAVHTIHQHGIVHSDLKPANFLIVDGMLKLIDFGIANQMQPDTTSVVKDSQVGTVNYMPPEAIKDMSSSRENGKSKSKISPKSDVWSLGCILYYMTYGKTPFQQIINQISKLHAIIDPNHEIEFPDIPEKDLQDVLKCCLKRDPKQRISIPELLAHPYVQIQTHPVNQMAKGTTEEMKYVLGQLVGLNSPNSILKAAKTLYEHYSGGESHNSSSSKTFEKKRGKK", "test": "Mps-1 kinase assay (TR-FRET)", "assay_type": "biochemical", "details": "Mps-1 TR-FRET kinase assay; avg; read-out: Mps1 avg (IC50 [mol/l])", "outline": "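Inhibition normalised between uninhibited reaction (0%) and enzyme-free wells (100%), using the blank-corrected TR-FRET 665/620 nm ratio after EDTA stop. Reaction: ~0.5 nM GST-Mps-1 full length, 10 μM ATP, 1 μM biotin-peptide, 60 min at 22 °C, after 15 min compound pre-binding, pH 7.7.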", "values": [
      {"smiles": "Cc1nsc(Nc2cnc(C(F)(F)F)cn2)c1C(=O)Nc1cccc(S(C)(=O)=O)c1", "note": "[Example 195, 3-methyl-N-[3-(methylsulfonyl)phenyl]-5-{[5-(trifluoromethyl)pyrazin-2-yl]amino}-1,2-thiazole-4-carboxamide]", "IC50": "> 20 µM"},
      {"smiles": "Cc1nsc(Nc2cncc(C(F)(F)F)n2)c1C(=O)Nc1ccc(OCCN)nc1", "note": "[Example 196, N-[6-(2-aminoethoxy)pyridin-3-yl]-3-methyl-5-{[6-(trifluoromethyl)pyrazin-2-yl]amino}-1,2-thiazole-4-carboxamide]", "IC50": "> 20 µM"},
      {"smiles": "Cc1nsc(Nc2cnc(C(F)(F)F)cn2)c1C(=O)Nc1ccc(OCCN)nc1", "note": "[Example 197, N-[6-(2-aminoethoxy)pyridin-3-yl]-3-methyl-5-{[5-(trifluoromethyl)pyrazin-2-yl]amino}-1,2-thiazole-4-carboxamide]", "IC50": "> 20 µM"},
      {"smiles": "Cc1nsc(Nc2cnc3ccccc3n2)c1C(=O)Nc1ccc(OCCC(=O)OC(C)(C)C)nc1", "note": "[Example 198, tert-butyl 3-{[5-({[3-methyl-5-(quinoxalin-2-ylamino)-1,2-thiazol-4-yl]carbonyl}amino)pyridin-2-yl]oxy}propanoate]", "IC50": "4.6 µM"},
      {"smiles": "Cc1nsc(Nc2ccc(C#N)cn2)c1C(=O)Nc1ccc(OCCC(=O)OC(C)(C)C)nc1", "note": "[Example 199, tert-butyl 3-({5-[({5-[(5-cyanopyridin-2-yl)amino]-3-methyl-1,2-thiazol-4-yl}carbonyl)amino]pyridin-2-yl}oxy)propanoate]", "IC50": "> 20 µM"},
      {"smiles": "Cc1nsc(Nc2cc(C#N)ccn2)c1C(=O)Nc1ccc(OCCC(=O)OC(C)(C)C)nc1", "note": "[Example 200, tert-butyl 3-({5-[({5-[(4-cyanopyridin-2-yl)amino]-3-methyl-1,2-thiazol-4-yl}carbonyl)amino]pyridin-2-yl}oxy)propanoate]", "IC50": "> 20 µM"},
      {"smiles": "Cc1nsc(Nc2cnc3ccccc3n2)c1C(=O)Nc1ccc(C(N)=O)c(F)c1", "note": "[Example 201, N-(4-carbamoyl-3-fluorophenyl)-3-methyl-5-(quinoxalin-2-ylamino)-1,2-thiazole-4-carboxamide]", "IC50": "> 20 µM"},
      {"smiles": "Cc1nsc(Nc2cnc3ccccc3n2)c1C(=O)Nc1ccc(F)c(C(N)=O)c1", "note": "[Example 202, N-(3-carbamoyl-4-fluorophenyl)-3-methyl-5-(quinoxalin-2-ylamino)-1,2-thiazole-4-carboxamide]", "IC50": "5.8 µM"},
      {"smiles": "Cc1nsc(Nc2ccc(C#N)cn2)c1C(=O)Nc1ccc(F)c(C(N)=O)c1", "note": "[Example 203, N-(3-carbamoyl-4-fluorophenyl)-5-[(5-cyanopyridin-2-yl)amino]-3-methyl-1,2-thiazole-4-carboxamide]", "IC50": "> 20 µM"},
      {"smiles": "Cc1nsc(Nc2cncc(C(F)(F)F)n2)c1C(=O)Nc1ccc(F)c(C(N)=O)c1", "note": "[Example 204, N-(3-carbamoyl-4-fluorophenyl)-3-methyl-5-{[6-(trifluoromethyl)pyrazin-2-yl]amino}-1,2-thiazole-4-carboxamide]", "IC50": "17 µM"},
      {"smiles": "CC(=O)Nc1cc(NC(=O)c2c(C)nsc2Nc2cnccn2)ccc1F", "note": "[Example 205, N-(3-acetamido-4-fluorophenyl)-3-methyl-5-(pyrazin-2-ylamino)-1,2-thiazole-4-carboxamide]", "IC50": "> 20 µM"},
      {"smiles": "CC(=O)Nc1cc(NC(=O)c2c(C)nsc2Nc2cnc(C(F)(F)F)cn2)ccc1F", "note": "[Example 206, N-(3-acetamido-4-fluorophenyl)-3-methyl-5-{[5-(trifluoromethyl)pyrazin-2-yl]amino}-1,2-thiazole-4-carboxamide]", "IC50": "> 20 µM"},
      {"smiles": "CNC(=O)c1ccc(NC(=O)c2c(C)nsc2Nc2cnc3ccccc3n2)cc1F", "note": "[Example 207, N-[3-fluoro-4-(methylcarbamoyl)phenyl]-3-methyl-5-(quinoxalin-2-ylamino)-1,2-thiazole-4-carboxamide]", "IC50": "> 20 µM"},
      {"smiles": "CNC(=O)c1ccc(NC(=O)c2c(C)nsc2Nc2ccc(C#N)cn2)cc1F", "note": "[Example 208, 5-[(5-cyanopyridin-2-yl)amino]-N-[3-fluoro-4-(methylcarbamoyl)phenyl]-3-methyl-1,2-thiazole-4-carboxamide]", "IC50": "> 20 µM"},
      {"smiles": "Cc1nsc(Nc2cncc(C(F)(F)F)n2)c1C(=O)Nc1ccc(OCCCN)nc1", "note": "[Example 209, N-[6-(3-aminopropoxy)pyridin-3-yl]-3-methyl-5-{[6-(trifluoromethyl)pyrazin-2-yl]amino}-1,2-thiazole-4-carboxamide]", "IC50": "> 20 µM"},
      {"smiles": "CNS(=O)(=O)c1ccc(NC(=O)c2c(C)nsc2Nc2cc(C#N)ccn2)cc1", "note": "[Example 210, 5-[(4-cyanopyridin-2-yl)amino]-3-methyl-N-[4-(methylsulfamoyl)phenyl]-1,2-thiazole-4-carboxamide]", "IC50": "> 20 µM"},
      {"smiles": "CNS(=O)(=O)c1ccc(NC(=O)c2c(C)nsc2Nc2cncc(C(F)(F)F)n2)cc1", "note": "[Example 211, 3-methyl-N-[4-(methylsulfamoyl)phenyl]-5-{[6-(trifluoromethyl)pyrazin-2-yl]amino}-1,2-thiazole-4-carboxamide]", "IC50": "> 20 µM and 19 µM"},
      {"smiles": "CNS(=O)(=O)c1ccc(NC(=O)c2c(C)nsc2Nc2cnc(C(F)(F)F)cn2)cc1", "note": "[Example 212, 3-methyl-N-[4-(methylsulfamoyl)phenyl]-5-{[5-(trifluoromethyl)pyrazin-2-yl]amino}-1,2-thiazole-4-carboxamide]", "IC50": "> 20 µM"},
      {"smiles": "Cc1nsc(Nc2cnc(C(F)(F)F)cn2)c1C(=O)Nc1ccc(C(=O)NCCN2CCCC(F)C2)cc1", "note": "(stereo not shown) [Example 213, N-(4-{[2-(3-fluoropiperidin-1-yl)ethyl]carbamoyl}phenyl)-3-methyl-5-{[5-(trifluoromethyl)pyrazin-2-yl]amino}-1,2-thiazole-4-carboxamide]", "IC50": "> 20 µM"},
      {"smiles": "Cc1nsc(Nc2cncc(C(F)(F)F)n2)c1C(=O)Nc1ccc(C(=O)NCCN2CCCC(F)(F)C2)cc1", "note": "[Example 214, N-(4-{[2-(3,3-difluoropiperidin-1-yl)ethyl]carbamoyl}phenyl)-3-methyl-5-{[6-(trifluoromethyl)pyrazin-2-yl]amino}-1,2-thiazole-4-carboxamide]", "IC50": "> 20 µM"},
      {"smiles": "Cc1nsc(Nc2cnc(C(F)(F)F)cn2)c1C(=O)Nc1ccc(OCCNC(=O)OC(C)(C)C)c(F)c1", "note": "[Example 215, tert-butyl [2-(2-fluoro-4-{[(3-methyl-5-{[5-(trifluoromethyl)pyrazin-2-yl]amino}-1,2-thiazol-4-yl)carbonyl]amino}phenoxy)ethyl]carbamate]", "IC50": "> 20 µM"},
      {"smiles": "Cc1nsc(Nc2cncc(C(F)(F)F)n2)c1C(=O)Nc1ccc(OCCNC(=O)OC(C)(C)C)c(F)c1", "note": "[Example 216, tert-butyl [2-(2-fluoro-4-{[(3-methyl-5-{[6-(trifluoromethyl)pyrazin-2-yl]amino}-1,2-thiazol-4-yl)carbonyl]amino}phenoxy)ethyl]carbamate]", "IC50": "> 20 µM"},
      {"smiles": "Cc1nsc(Nc2cnc(C(F)(F)F)cn2)c1C(=O)Nc1ccc(OC2CCN(C(=O)OC(C)(C)C)CC2)c(F)c1", "note": "[Example 217, tert-butyl 4-(2-fluoro-4-{[(3-methyl-5-{[5-(trifluoromethyl)pyrazin-2-yl]amino}-1,2-thiazol-4-yl)carbonyl]amino}phenoxy)piperidine-1-carboxylate]", "IC50": "> 20 µM"},
      {"smiles": "Cc1nsc(Nc2cncc(C(F)(F)F)n2)c1C(=O)Nc1ccc(OC2CCN(C(C)C)CC2)nc1", "note": "[Example 218, N-{6-[(1-isopropylpiperidin-4-yl)oxy]pyridin-3-yl}-3-methyl-5-{[6-(trifluoromethyl)pyrazin-2-yl]amino}-1,2-thiazole-4-carboxamide]", "IC50": "> 20 µM"},
      {"smiles": "Cc1nsc(Nc2cncc(C(F)(F)F)n2)c1C(=O)Nc1ccc(OC2CCN(C)CC2)nc1", "note": "[Example 219, 3-methyl-N-{6-[(1-methylpiperidin-4-yl)oxy]pyridin-3-yl}-5-{[6-(trifluoromethyl)pyrazin-2-yl]amino}-1,2-thiazole-4-carboxamide]", "IC50": "> 20 µM"},
      {"smiles": "Cc1nsc(Nc2cnc(C(F)(F)F)cn2)c1C(=O)Nc1ccc(OC2CCN(C)CC2)nc1", "note": "[Example 220, 3-methyl-N-{6-[(1-methylpiperidin-4-yl)oxy]pyridin-3-yl}-5-{[5-(trifluoromethyl)pyrazin-2-yl]amino}-1,2-thiazole-4-carboxamide]", "IC50": "> 20 µM"},
      {"smiles": "Cc1nsc(Nc2cnc(C(F)(F)F)cn2)c1C(=O)Nc1ccc(OCCN)c(F)c1", "note": "[Example 221, 3-N-[4-(2-aminoethoxy)-3-fluorophenyl]-3-methyl-5-{[5-(trifluoromethyl)pyrazin-2-yl]amino}-1,2-thiazole-4-carboxamide]", "IC50": "> 20 µM"},
      {"smiles": "Cc1nsc(Nc2cncc(C(F)(F)F)n2)c1C(=O)Nc1ccc(C(=O)NC2CCN(C(=O)OC(C)(C)C)CC2)cc1", "note": "[Example 222, tert-butyl 4-[(4-{[(3-methyl-5-{[6-(trifluoromethyl)pyrazin-2-yl]amino}-1,2-thiazol-4-yl)carbonyl]amino}benzoyl)amino] piperidine-1-carboxylate]", "IC50": "> 20 µM"}
    ]}
  ]
}
